# Data taken from ChEMBL document CHEMBL1201862, “PubChem BioAssay data set” (2004).
#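 Test compounds were applied to cells in 96-well plates for 48 hours at 5 doses. At the GI50, growth is halved.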 Active and inactive are the calls of the source. Rule as the data show it: active = GI50 up to about 1.1 µM and inactive = higher.
# Key:
# Assay in all cases: inhibition of tumour cell growth, NCI panel, 48 h
# 786-0 = system: 786-0
# A498 = system: A498
# A549 = system: A549
# ACHN = system: ACHN
# BT-549 = system: BT-549
# CAKI-1 = system: CAKI-1
# CCRF-CEM = system: CCRF-CEM
# COLO 205 = system: COLO 205
# DLD-1 = system: DLD-1
# DMS-114 = system: DMS-114
# DMS-273 = system: DMS-273
# DU-145 = system: DU-145
# EKVX = system: EKVX
# HCC 2998 = system: HCC 2998
# HCT-116 = system: HCT-116
# HCT-15 = system: HCT-15
# HL-60 = system: HL-60
# HOP-18 = system: HOP-18
# HOP-62 = system: HOP-62
# HOP-92 = system: HOP-92
# HT-29 = system: HT-29
# Hs-578T = system: Hs-578T
# IGROV-1 = system: IGROV-1
# K562 = system: K562
# KM-20L2 = system: KM-20L2
# KM12 = system: KM12
# LOX IMVI = system: LOX IMVI
# LXFL 529 = system: LXFL 529
# M14 = system: M14
# M19-MEL = system: M19-MEL
# MCF7 = system: MCF7
# MDA-MB-231 = system: MDA-MB-231
# MDA-MB-435 = system: MDA-MB-435
# MDA-N = system: MDA-N
# MOLT-4 = system: MOLT-4
# Malme-3M = system: Malme-3M
# NCI-H226 = system: NCI-H226
# NCI-H23 = system: NCI-H23
# NCI-H460 = system: NCI-H460
# NCI-H522 = system: NCI-H522
# NCI/ADR-RES = system: NCI/ADR-RES
# OVCAR-3 = system: OVCAR-3
# OVCAR-4 = system: OVCAR-4
# OVCAR-5 = system: OVCAR-5
# OVCAR-8 = system: OVCAR-8
# PC-3 = system: PC-3
# RPMI-8226 = system: RPMI-8226
# RXF 393 = system: RXF 393
# SF-268 = system: SF-268
# SF-295 = system: SF-295
# SF-539 = system: SF-539
# SK-MEL-28 = system: SK-MEL-28
# SK-MEL-2 = system: SK-MEL-2
# SK-MEL-5 = system: SK-MEL-5
# SK-OV-3 = system: SK-OV-3
# SN12C = system: SN12C
# SNB-19 = system: SNB-19
# SNB-75 = system: SNB-75
# SNB-78 = system: SNB-78
# SR = system: SR
# SW-620 = system: SW-620
# T47D = system: T47D
# TK-10 = system: TK-10
# U-251 = system: U-251
# UACC-257 = system: UACC-257
# UACC-62 = system: UACC-62
# UO-31 = system: UO-31
# XF498 = system: XF498
structure (smiles),measurement,setting,value
CS(=O)(=O)OCCCCOS(C)(=O)=O [BUSULFAN],GI50,786-0,228 µM (inactive)
same,GI50,A498,233 µM (inactive)
same,GI50,A549,208 µM (inactive)
same,GI50,ACHN,172 µM (inactive)
same,GI50,BT-549,> 1000 µM (inactive)
same,GI50,CAKI-1,161 µM (inactive)
same,GI50,CCRF-CEM,145 µM (inactive)
same,GI50,COLO 205,222 µM (inactive)
same,GI50,DLD-1,> 236 µM (inactive)
same,GI50,DMS-114,225 µM (inactive)
same,GI50,DMS-273,191 µM (inactive)
same,GI50,DU-145,220 µM (inactive)
same,GI50,EKVX,> 201 µM (inactive)
same,GI50,HCC 2998,183 µM (inactive)
same,GI50,HCT-116,238 µM (inactive)
same,GI50,HCT-15,219 µM
same,GI50,HL-60,125 µM (inactive)
same,GI50,HOP-18,> 200 µM (inactive)
same,GI50,HOP-62,187 µM (inactive)
same,GI50,HOP-92,198 µM (inactive)
same,GI50,HT-29,247 µM (inactive)
same,GI50,Hs-578T,> 250 µM (inactive)
same,GI50,IGROV-1,> 212 µM (inactive)
same,GI50,K562,201 µM (inactive)
same,GI50,KM-20L2,> 234 µM (inactive)
same,GI50,KM12,> 250 µM (inactive)
same,GI50,LOX IMVI,221 µM (inactive)
same,GI50,LXFL 529,> 250 µM (inactive)
same,GI50,M14,236 µM (inactive)
same,GI50,M19-MEL,226 µM (inactive)
same,GI50,MCF7,213 µM (inactive)
same,GI50,MDA-MB-231,> 1000 µM (inactive)
same,GI50,MDA-MB-435,> 1000 µM (inactive)
same,GI50,MDA-N,209 µM (inactive)
same,GI50,MOLT-4,124 µM (inactive)
same,GI50,Malme-3M,242 µM (inactive)
same,GI50,NCI-H226,237 µM (inactive)
same,GI50,NCI-H23,230 µM (inactive)
same,GI50,NCI-H460,95.9 µM (inactive)
same,GI50,NCI-H522,239 µM (inactive)
same,GI50,NCI/ADR-RES,217 µM (inactive)
same,GI50,OVCAR-3,> 250 µM (inactive)
same,GI50,OVCAR-4,214 µM (inactive)
same,GI50,OVCAR-5,> 250 µM (inactive)
same,GI50,OVCAR-8,237 µM (inactive)
same,GI50,PC-3,235 µM (inactive)
same,GI50,RPMI-8226,237 µM (inactive)
same,GI50,RXF 393,182 µM (inactive)
same,GI50,SF-268,179 µM (inactive)
same,GI50,SF-295,210 µM (inactive)
same,GI50,SF-539,233 µM (inactive)
same,GI50,SK-MEL-28,203 µM (inactive)
same,GI50,SK-MEL-2,248 µM (inactive)
same,GI50,SK-MEL-5,232 µM (inactive)
same,GI50,SK-OV-3,> 237 µM (inactive)
same,GI50,SN12C,233 µM (inactive)
same,GI50,SNB-19,222 µM (inactive)
same,GI50,SNB-75,144 µM (inactive)
same,GI50,SNB-78,212 µM (inactive)
same,GI50,SR,87.9 µM (inactive)
same,GI50,SW-620,224 µM (inactive)
same,GI50,T47D,> 250 µM (inactive)
same,GI50,TK-10,> 250 µM (inactive)
same,GI50,U-251,234 µM (inactive)
same,GI50,UACC-257,183 µM (inactive)
same,GI50,UACC-62,187 µM (inactive)
same,GI50,UO-31,244 µM (inactive)
Oc1ccc(O)c(-n2cccn2)c1-n1cccn1,GI50,786-0,> 100 µM (inactive)
same,GI50,A498,> 100 µM (inactive)
same,GI50,A549,> 100 µM (inactive)
same,GI50,ACHN,> 100 µM (inactive)
same,GI50,CAKI-1,> 100 µM (inactive)
same,GI50,CCRF-CEM,> 10 µM (inactive)
same,GI50,COLO 205,30.5 µM (inactive)
same,GI50,DLD-1,> 100 µM (inactive)
same,GI50,DMS-114,> 100 µM (inactive)
same,GI50,DMS-273,> 100 µM (inactive)
same,GI50,EKVX,> 100 µM (inactive)
same,GI50,HCC 2998,> 100 µM (inactive)
same,GI50,HCT-15,> 100 µM
same,GI50,HL-60,> 10 µM (inactive)
same,GI50,HOP-62,> 100 µM (inactive)
same,GI50,HOP-92,> 100 µM (inactive)
same,GI50,HT-29,> 100 µM (inactive)
same,GI50,IGROV-1,> 100 µM (inactive)
same,GI50,K562,36.8 µM (inactive)
same,GI50,KM-20L2,> 100 µM (inactive)
same,GI50,KM12,> 100 µM (inactive)
same,GI50,LOX IMVI,> 100 µM (inactive)
same,GI50,LXFL 529,> 100 µM (inactive)
same,GI50,M14,> 100 µM (inactive)
same,GI50,M19-MEL,35.8 µM (inactive)
same,GI50,MOLT-4,> 10 µM (inactive)
same,GI50,Malme-3M,> 100 µM (inactive)
same,GI50,NCI-H23,> 100 µM (inactive)
same,GI50,NCI-H460,> 100 µM (inactive)
same,GI50,NCI-H522,25.7 µM (inactive)
same,GI50,OVCAR-3,> 100 µM (inactive)
same,GI50,OVCAR-4,> 100 µM (inactive)
same,GI50,OVCAR-5,> 100 µM (inactive)
same,GI50,OVCAR-8,> 100 µM (inactive)
same,GI50,RPMI-8226,> 100 µM (inactive)
same,GI50,RXF 393,> 100 µM (inactive)
same,GI50,SF-268,> 100 µM (inactive)
same,GI50,SF-295,37.2 µM (inactive)
same,GI50,SF-539,> 100 µM (inactive)
same,GI50,SK-MEL-28,> 100 µM (inactive)
same,GI50,SK-MEL-2,> 100 µM (inactive)
same,GI50,SK-MEL-5,> 100 µM (inactive)
same,GI50,SK-OV-3,> 100 µM (inactive)
same,GI50,SN12C,> 100 µM (inactive)
same,GI50,SNB-19,> 100 µM (inactive)
same,GI50,SNB-75,> 100 µM (inactive)
same,GI50,SNB-78,> 100 µM (inactive)
same,GI50,SW-620,44.6 µM (inactive)
same,GI50,TK-10,> 100 µM (inactive)
same,GI50,U-251,> 100 µM (inactive)
same,GI50,UACC-62,97.7 µM (inactive)
same,GI50,UO-31,> 100 µM (inactive)
same,GI50,XF498,> 100 µM (inactive)
